Columns and labels:
Type in all cases: physicochemical
[1] = KF water content of stability samples
Method: The water content of each sample was measured on a Metrohm 874 Oven Sample Processor at 150° C. with 851 Titrano Coulometer using Hydranal Coulomat AG oven reagent and nitrogen purge. Weighed solid samples were introduced into a sealed sample vial. Approximately 10 mg of sample was used per titration and duplicate determinations were made. […] Data collection and analysis were performed using Tiamo software.
The water content of samples of Form 1 (batch ref. LS19-0004-3-8002), Form 3 prepared by minimally-agitated drying ([…]; batch ref. 491-PAL-18) and Form 3 prepared by continuously-agitated filter drying (Example 5B trial 5; batch ref. 00173-005) was analysed by KF at the start of the stability study (initial) and after 2, 4 and 8 weeks storage in 60 ml Duma® bottles fitted with 45 mm Duma® caps (without desiccant) at 25° C./60% RH—see Table 16;
(§1) In a separate study, samples of Form 3 (Example 5.3; batch ref. 491-PAL-18) having an initial water content by KF of 2.3% w/w were tested for water content at various time points after storage double bagged in a HDPE bottle under various conditions as shown in Table 17.

[2] = Preliminary stability study, related substances by HPLC
Method: Analysis of samples of sulforaphane:alpha-cyclodextrin complexes as prepared herein were carried out by HPLC according to the following method: • Column—Phenomenex Gemini C18, 5 μm, 110 Å, 250×4.6 mm; • Mobile Phase A: Water (+0.1% TFA); • Mobile Phase B: Acetonitrile (+0.1% TFA); • Flow: 1.5 mL/min; • Injection Volume: 10 μL; • Column Temperature: 25° C.; • Run Time: 40 minutes; • Sample preparation—Accurately weighed and transferred about 320 mg±30 mg of the sample to a 25-mL volumetric flask, added about 15 mL of diluent (70% water, 30% acetonitrile, 0.1% TFA) and mixed until dissolved. Diluted to volume with diluent and mixed. Transferred 3-4 mL to a syringe and filtered using a 0.45 PTFE filter, discarding the first 1-2 ml, and filtered into an autosampler vial and sealed with PTFE lined cap (prepared in duplicate); • HPLC Gradient according to Table 12
Sulforaphane and certain related impurity peaks are summarised in Table 13, Characterisation of the impurities was carried out by LC-MS and ^1H-NMR. Relative Retention Times (RRT) are based on the HPLC method described above.
Samples of Form 1 (batch ref. LS19-0004-S-8002), Form 3 prepared by minimally-agitated drying (Example 5.3; batch ref. 491-PAL-18) and Form 3 prepared by continuously-agitated filter drying (Example 5B—trial 5; batch ref. 00173-005) were stored at 5° C. (Table 14) and at 25° C./60% RH (Table 15) for 8 weeks in 60 ml Duma® bottles fitted with 45 mm Duma® caps and samples were analysed by HPLC according to the above method.

[3] = XRPD physical form after storage; settings: double bagged in HDPE bottle
Method: XRPD diffractograms were collected on a PANalytical Empyrean diffractometer using Cu Kα radiation (45 kV, 40 mA) in transmission geometry. A 0.5° sat, 4 mm mask and 0.04 rad Soller slits with a focusing mirror were used on the incident beam. A PIXcel^3D detector, placed on the diffracted beam, was fitted with a receiving slit and 0.04 rad Soller slits. The software used for data collection was X'Pert Data Collector using X'Pert Operator Interface. The data were analysed and presented using Diffrac Plus EVA or HighScore Plus.
After removal from the vacuum oven (day 0), Example 3 was reanalysed by XRPD in reflection mode on days 7, 9 and 29.
as §1

[4] = 2 weeks, Duma bottles without desiccant, 25° C./60% RH
[5] = 4 weeks, Duma bottles without desiccant, 25° C./60% RH
[6] = 8 weeks, Duma bottles without desiccant, 25° C./60% RH
[7] = Initial, Duma bottles without desiccant, 25° C./60% RH study
[8] = 25° C./60% RH stability, Initial

C[S+]([O-])CCCCN=C=S.OC[C@H]1O[C@@H]2O[C@H]3[C@H](O)[C@@H](O)[C@@H](O[C@H]4[C@H](O)[C@@H](O)[C@@H](O[C@H]5[C@H](O)[C@@H](O)[C@@H](O[C@H]6[C@H](O)[C@@H](O)[C@@H](O[C@H]7[C@H](O)[C@@H](O)[C@@H](O[C@H]1[C@H](O)[C@H]2O)O[C@@H]7CO)O[C@@H]6CO)O[C@@H]5CO)O[C@@H]4CO)O[C@@H]3CO [Form 3 (Example 5B-trial 5)]
KF water content [1, 4]: 3.3 % w/w | KF water content [1, 5]: 2.6 % w/w | KF water content [1, 6]: 3.6 % w/w | KF water content [1, 7]: 2.9 % w/w | Related substances, HPLC RRT 0.56 (Dimer) ([2]; 5° C. stability, 8 wk): 0.15 % Area | Related substances, HPLC RRT 0.60 (α-CD adduct) ([2]; 5° C. stability, 8 wk): 0.42 % Area | Related substances, HPLC RRT 1.14 (Mixed dimer) ([2]; 5° C. stability, 8 wk): 0.05 % Area | Related substances, HPLC RRT 1.21 (Erysolin) ([2]; 5° C. stability, 8 wk): 0.29 % Area | Related substances, HPLC RRT 1.58 (Thioether dimer) ([2]; 5° C. stability, 8 wk): <0.05 % Area | Related substances, Total Impurities ([2]; 5° C. stability, 8 wk): 1.30 % Area | Related substances, HPLC RRT 0.56 (Dimer) ([2]; 5° C. stability, Initial): 0.15 % Area | Related substances, HPLC RRT 0.60 (α-CD adduct) ([2]; 5° C. stability, Initial): 0.36 % Area | Related substances, HPLC RRT 1.14 (Mixed dimer) ([2]; 5° C. stability, Initial): <0.05 % Area | Related substances, HPLC RRT 1.21 (Erysolin) ([2]; 5° C. stability, Initial): 0.28 % Area | Related substances, HPLC RRT 1.58 (Thioether dimer) ([2]; 5° C. stability, Initial): <0.05 % Area | Related substances, Total Impurities ([2]; 5° C. stability, Initial): 1.16 % Area | Related substances, HPLC RRT 0.56 (Dimer) ([2]; 25° C./60% RH stability, 8 wk): 0.28 % Area | Related substances, HPLC RRT 0.60 (α-CD adduct) ([2]; 25° C./60% RH stability, 8 wk): 1.15 % Area | Related substances, HPLC RRT 1.14 (Mixed dimer) ([2]; 25° C./60% RH stability, 8 wk): 0.06 % Area | Related substances, HPLC RRT 1.21 (Erysolin) ([2]; 25° C./60% RH stability, 8 wk): 0.28 % Area | Related substances, HPLC RRT 1.58 (Thioether dimer) ([2]; 25° C./60% RH stability, 8 wk): <0.05 % Area | Related substances, Total Impurities ([2]; 25° C./60% RH stability, 8 wk): 2.35 % Area | Related substances, HPLC RRT 0.56 (Dimer) [2, 8]: 0.15 % Area | Related substances, HPLC RRT 0.60 (α-CD adduct) [2, 8]: 0.36 % Area | Related substances, HPLC RRT 1.14 (Mixed dimer) [2, 8]: <0.05 % Area | Related substances, HPLC RRT 1.21 (Erysolin) [2, 8]: 0.28 % Area | Related substances, HPLC RRT 1.58 (Thioether dimer) [2, 8]: <0.05 % Area | Related substances, Total Impurities [2, 8]: 1.16 % Area

C[S+]([O-])CCCCN=C=S.OC[C@H]1O[C@@H]2O[C@H]3[C@H](O)[C@@H](O)[C@@H](O[C@H]4[C@H](O)[C@@H](O)[C@@H](O[C@H]5[C@H](O)[C@@H](O)[C@@H](O[C@H]6[C@H](O)[C@@H](O)[C@@H](O[C@H]7[C@H](O)[C@@H](O)[C@@H](O[C@H]1[C@H](O)[C@H]2O)O[C@@H]7CO)O[C@@H]6CO)O[C@@H]5CO)O[C@@H]4CO)O[C@@H]3CO [Form 3 (Example 5.3)]
KF water content [1, 4]: 2.5 % w/w | KF water content [1, 5]: 2.1 % w/w | KF water content ([1]; 5° C., 1 month, double bagged in HDPE bottle): 4.2 % w/w | KF water content ([1]; 5° C., 3 months, double bagged in HDPE bottle): 4.6 % w/w | KF water content ([1]; 5° C., 6 months, double bagged in HDPE bottle): 4.7 % w/w | KF water content ([1]; 5° C., Initial, double bagged in HDPE bottle): 2.3 % w/w | KF water content [1, 6]: 3.2 % w/w | KF water content ([1]; 25° C./60% RH, 1 month, double bagged in HDPE bottle): 6.1 % w/w | KF water content ([1]; 25° C./60% RH, 3 months, double bagged in HDPE bottle): 5.7 % w/w | KF water content ([1]; 25° C./60% RH, 6 months, double bagged in HDPE bottle): 6.1 % w/w | KF water content ([1]; 25° C./60% RH, Initial, double bagged in HDPE bottle): 2.3 % w/w | KF water content ([1]; 40° C./75% RH, 1 month, double bagged in HDPE bottle): 6.2 % w/w | KF water content ([1]; 40° C./75% RH, 3 months, double bagged in HDPE bottle): 6.2 % w/w | KF water content ([1]; 40° C./75% RH, Initial, double bagged in HDPE bottle): 2.3 % w/w | KF water content [1, 7]: 2.4 % w/w | Related substances, HPLC RRT 0.56 (Dimer) ([2]; 5° C. stability, 8 wk): <0.05 % Area | Related substances, HPLC RRT 0.60 (α-CD adduct) ([2]; 5° C. stability, 8 wk): 1.19 % Area | Related substances, HPLC RRT 1.14 (Mixed dimer) ([2]; 5° C. stability, 8 wk): 0.05 % Area | Related substances, HPLC RRT 1.21 (Erysolin) ([2]; 5° C. stability, 8 wk): 0.28 % Area | Related substances, HPLC RRT 1.58 (Thioether dimer) ([2]; 5° C. stability, 8 wk): 0.07 % Area | Related substances, Total Impurities ([2]; 5° C. stability, 8 wk): 1.98 % Area | Related substances, HPLC RRT 0.56 (Dimer) ([2]; 5° C. stability, Initial): <0.05 % Area | Related substances, HPLC RRT 0.60 (α-CD adduct) ([2]; 5° C. stability, Initial): 0.95 % Area | Related substances, HPLC RRT 1.14 (Mixed dimer) ([2]; 5° C. stability, Initial): 0.05 % Area | Related substances, HPLC RRT 1.21 (Erysolin) ([2]; 5° C. stability, Initial): 0.29 % Area | Related substances, HPLC RRT 1.58 (Thioether dimer) ([2]; 5° C. stability, Initial): 0.08 % Area | Related substances, Total Impurities ([2]; 5° C. stability, Initial): 1.71 % Area | Related substances, HPLC RRT 0.56 (Dimer) ([2]; 25° C./60% RH stability, 8 wk): 0.26 % Area | Related substances, HPLC RRT 0.60 (α-CD adduct) ([2]; 25° C./60% RH stability, 8 wk): 3.21 % Area | Related substances, HPLC RRT 1.14 (Mixed dimer) ([2]; 25° C./60% RH stability, 8 wk): 0.05 % Area | Related substances, HPLC RRT 1.21 (Erysolin) ([2]; 25° C./60% RH stability, 8 wk): 0.27 % Area | Related substances, HPLC RRT 1.58 (Thioether dimer) ([2]; 25° C./60% RH stability, 8 wk): 0.07 % Area | Related substances, Total Impurities ([2]; 25° C./60% RH stability, 8 wk): 4.57 % Area | Related substances, HPLC RRT 0.56 (Dimer) [2, 8]: <0.05 % Area | Related substances, HPLC RRT 0.60 (α-CD adduct) [2, 8]: 0.95 % Area | Related substances, HPLC RRT 1.14 (Mixed dimer) [2, 8]: 0.05 % Area | Related substances, HPLC RRT 1.21 (Erysolin) [2, 8]: 0.29 % Area | Related substances, HPLC RRT 1.58 (Thioether dimer) [2, 8]: 0.08 % Area | Related substances, Total Impurities [2, 8]: 1.71 % Area | XRPD main peaks of stability sample ([3]; 1 month, 40° C./75% RH): concordant with Form 3 | XRPD main peaks of stability sample ([3]; 3 month, 25° C./60% RH): concordant with Form 3

From patent publication US12590057B2, “Crystalline complexes” (Theracryf PLC, priority 2020, dated 2026)
